From patent publication US20220306617A1, “SUBSTITUTED 1,3-PHENYL HETEROARYL DERIVATIVES AND THEIR USE IN THE TREATMENT OF DISEASE” (NOVARTIS AG, priority 2019, published 2022)
Structures can show the parent of a compound that is named as a salt.

Molecular target: T1, abc isoform of human TMEM16A channel expressed in CHO cells (Homo sapiens, UniProt Q5XXA6, DEL476-501)
T1 construct: expressed in transfected cells; host or cells: CHO cells, doxycycline-inducible expression under Blasticidin/Zeocin selection
T1 sequence (Q5XXA6 with tags, fused parts or gaps isoform Q5XXA6-5 DEL539-564): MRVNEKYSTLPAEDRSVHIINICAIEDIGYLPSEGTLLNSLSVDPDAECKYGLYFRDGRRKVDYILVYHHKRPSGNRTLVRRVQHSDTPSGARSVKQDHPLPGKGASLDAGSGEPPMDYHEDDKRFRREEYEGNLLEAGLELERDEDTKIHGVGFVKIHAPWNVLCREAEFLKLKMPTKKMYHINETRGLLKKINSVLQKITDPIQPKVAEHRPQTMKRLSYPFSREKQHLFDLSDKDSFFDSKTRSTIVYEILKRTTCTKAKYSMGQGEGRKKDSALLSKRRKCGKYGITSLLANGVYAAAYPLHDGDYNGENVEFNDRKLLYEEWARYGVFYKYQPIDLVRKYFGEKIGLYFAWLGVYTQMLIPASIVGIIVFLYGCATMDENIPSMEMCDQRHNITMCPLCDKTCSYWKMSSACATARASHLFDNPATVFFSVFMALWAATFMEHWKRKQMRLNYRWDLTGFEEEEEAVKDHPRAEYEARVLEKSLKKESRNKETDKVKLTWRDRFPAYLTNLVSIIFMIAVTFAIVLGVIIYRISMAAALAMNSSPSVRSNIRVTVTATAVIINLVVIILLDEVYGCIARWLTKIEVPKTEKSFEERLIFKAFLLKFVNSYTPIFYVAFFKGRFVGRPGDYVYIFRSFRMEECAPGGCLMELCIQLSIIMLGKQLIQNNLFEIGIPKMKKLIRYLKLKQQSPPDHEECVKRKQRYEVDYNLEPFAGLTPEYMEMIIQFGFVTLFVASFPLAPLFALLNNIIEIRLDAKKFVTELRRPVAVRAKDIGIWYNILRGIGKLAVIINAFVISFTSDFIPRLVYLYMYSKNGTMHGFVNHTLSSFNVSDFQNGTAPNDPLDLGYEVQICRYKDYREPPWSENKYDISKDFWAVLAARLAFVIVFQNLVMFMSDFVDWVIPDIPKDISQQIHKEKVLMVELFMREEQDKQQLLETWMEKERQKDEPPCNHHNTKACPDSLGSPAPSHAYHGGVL
Experiment: Automated patch clamping (QPatch) assay to measure TMEM16A activity in whole-cell
Format: cell-based
Settings: for EC50: CHO cells expressing human TMEM16A (abc), whole-cell automated patch clamp, Hill fit, read-out: TMEM16A QPATCH assay EC50 V3 EC50; for Emax: CHO, maximum current at highest dose relative to reference potentiator at maximal concentration (upper limit) and vehicle (lower limit), read-out: TMEM16A QPATCH assay EC50 V3 Assay Window (% TMEM16A max activation)
Outline: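 Whole-cell currents were recorded by planar automated patch clamp from induced CHO cells (doxycycline 1 μg/mL, 18-24 h), using a −70 mV hold, +70 mV step and −90 to +70 mV ramp. Values: Hill-fitted EC50, and activation scaled between vehicle current and reference-potentiator maximum; 0.3% DMSO final.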

Row | SMILES | EC50 [nM] | Emax [%]
1 | CCC(CC)NC(=O)c1cc(-c2cccc(-c3ncc(C(=O)N[C@@H](C)C(=O)OCc4ccccc4)o3)c2)[nH]n1 [Example 1.41, (S)-Benzyl 2-(2-(3-(3-(Pentan-3-Ylcarbamoyl)-1H-Pyrazol-5-yl)Phenyl)Oxazole-5-Carboxamido)Propanoate] | 950 | 75
2 | CCC(CC)NC(=O)c1cc(-c2cccc(-c3ncc(C(=O)N[C@H](C)C4CCCCC4)o3)c2)[nH]n1 [Example 1.42, (R)-N-(1-Cyclohexylethyl)-2-(3-(3-(Pentan-3-Ylcarbamoyl)-1 H-Pyrazol-5-yl)Phenyl)Oxazole-5-Carboxamide] | 750 | 72
3 | CCC(CC)NC(=O)c1cc(-c2cccc(-c3ncc(C(=O)NCc4c(F)cccc4F)o3)c2)[nH]n1 [Example 1.43, N-(2,6-Difluorobenzyl)-2-(3-(3-(Pentan-3-Ylcarbamoyl)-1H-Pyrazol-5-yl)Phenyl)Oxazole-5-Carboxamide] | 430 | 70
4 | CCOC(=O)[C@H](NC(=O)c1cnc(-c2cccc(-c3cc(C(=O)NC(CC)CC)[nH]n3)c2)o1)C(C)C [Example 1.44, (R)-Ethyl 3-Methyl-2-(2-(3-(5-(Pentan-3-Ylcarbamoyl)-1H-Pyrazol-3-yl)Phenyl)Oxazole-5-Carboxamido)Butanoate] | 510 | 69
5 | CCC(CC)NC(=O)c1cc(-c2cccc(-c3ncc(C(=O)N[C@@H](C)CC)o3)c2)[nH]n1 [Example 1.45, (S)-N-(Sec-Butyl)-2-(3-(3-(Pentan-3-Ylcarbamoyl)-1H-Pyrazol-5-Yl)Phenyl)Oxazole-5-Carboxamide] | 710 | 75
6 | CCC(CC)NC(=O)c1cc(-c2cccc(-c3ncc(C(=O)N[C@H](C)C(C)C)o3)c2)[nH]n1 [Example 1.46, (R)-N-(3-Methylbutan-2-Yl)-2-(3-(3-(Pentan-3-Ylcarbamoyl)-1 H-Pyrazol-5-yl)Phenyl)Oxazole-5-Carboxamide] | 990 | 19
7 | CCC(CC)NC(=O)c1cc(-c2cccc(-c3ncc(C(=O)N[C@H](C(=O)OC)C(C)C)o3)c2)[nH]n1 [Example 1.47, (S)-Methyl 3-Methyl-2-(2-(3-(3-(Pentan-3-Ylcarbamoyl)-1H-Pyrazol-5-yl)Phenyl)Oxazole-5-Carboxamido)Butanoate] | 150 | 75
8 | CCC(NC(=O)c1cnc(-c2cccc(-c3cc(C(=O)N[C@@H](C)C4CC4)[nH]n3)c2)o1)C1CC1 (stereo partly drawn) [Example 1.48, 2-(3-(5-(((S)-1-Cyclopropylethyl)Carbamoyl)-1H-Pyrazol-3-Yl)Phenyl)-N-(1-Cyclopropylpropyl)Oxazole-5-Carboxamide] | 70 | 59
9 | COC(=O)C1(NC(=O)c2cnc(-c3cccc(-c4cc(C(=O)N[C@@H](C)C5CC5)[nH]n4)c3)o2)CCC1 [Example 1.49, (S)-Methyl 1-(2-(3-(5-((1-Cyclopropylethyl)Carbamoyl)-1H-Pyrazol-3-Yl)Phenyl)Oxazole-5-Carboxamido)Cyclobutanecarboxylate] | 400 | 70
10 | CCC(CC)NC(=O)c1cc(-c2cccc(-c3ncc(C(=O)N[C@@H](COC(C)(C)C)C(=O)OC(C)(C)C)o3)c2)[nH]n1 [Example 1.50, (S)-Tert-Butyl 3-(Tert-Butoxy)-2-(2-(3-(3-(Pentan-3-Ylcarbamoyl)-1H-Pyrazol-5-Yl)Phenyl)Oxazole-5-Carboxamido)Propanoate Trifluoroacetate] | 450 | 115
11 | CCOC(=O)C(C)(C)NC(=O)c1cnc(-c2cccc(-c3cc(C(=O)NC(CC)CC)n[nH]3)c2)o1 [Example 1.51, Ethyl 2-Methyl-2-(2-(3-(3-(Pentan-3-Ylcarbamoyl)-1H-Pyrazol-5-Yl)Phenyl)Oxazole-5-Carboxamido)Propanoate Trifluoroacetate] | 980 | 64
12 | CCOC(=O)[C@@H](NC(=O)c1cnc(-c2cccc(-c3cc(C(=O)N[C@@H](C(=O)OC)C(C)C)[nH]n3)c2)o1)C(C)C [Example 2.0, (S)-Ethyl 2-(2-(3-(5-(((R)-1-Methoxy-3-Methyl-1-Oxobutan-2-Yl)Carbamoyl)-1 H-Pyrazol-3-Yl)Phenyl)Oxazole-5-Carboxamido)-3-Methylbutanoate] | 140 | 87
13 | CCOC(=O)[C@@H](NC(=O)c1cnc(-c2cccc(-c3cc(C(=O)N[C@@H](CC(C)C)C(=O)OC)n[nH]3)c2)o1)C(C)C [Example 2.1, (S)-Methyl 2-(5-(3-(5-(((S)-1-Ethoxy-3-Methyl-1-Oxobutan-2-yl)Carbamoyl)Oxazol-2-Yl)Phenyl)-1H-Pyrazole-3-Carboxamido)-4-Methylpentanoate] | 30 | 83
14 | CCOC(=O)[C@@H](NC(=O)c1cc(-c2cccc(-c3ncc(C(=O)N[C@H](C(=O)OCC)C(C)C)o3)c2)[nH]n1)C(C)C [Example 2.2, (S)-Ethyl 2-(2-(3-(3-(((S)-1-Ethoxy-3-Methyl-1-Oxobutan-2-Yl)Carbamoyl)-1 H-Pyrazol-5-Yl)Phenyl)Oxazole-5-Carboxamido)-3-Methylbutanoate] | 32 | 112
15 | CCOC(=O)[C@@H](NC(=O)c1cnc(-c2cccc(-c3cc(C(=O)NC(C(F)F)C4CC4)[nH]n3)c2)o1)C(C)C (stereo partly drawn) [Example 2.4, (2S)-Ethyl 2-(2-(3-(5-((1-Cyclopropyl-2,2-Difluoroethyl)Carbamoyl)-1H-Pyrazol-3-Yl)Phenyl)Oxazole-5-Carboxamido)-3-Methylbutanoate] | 20 | 99
16 | C[C@H](NC(=O)c1cc(-c2cccc(-c3ncc(C(=O)N[C@@H](C)C4CC4)o3)c2)[nH]n1)C1CC1 [Example 2.5, N-((S)-1-Cyclopropylethyl)-2-(3-(3-(((S)-1-Cyclopropylethyl)Carbamoyl)-1H-Pyrazol-5-Yl)Phenyl)Oxazole-5-Carboxamide] | 10 | 32
17 | CCC(CC)NC(=O)c1cnc(-c2cccc(-c3cc(C(=O)NC(COC)C4CC4)n[nH]3)c2)o1 (stereo not drawn) [Example 3.1, 2-(3-(3-((1-Cyclopropyl-2-Methoxyethyl)Carbamoyl)-1H-Pyrazol-5-Yl)Phenyl)-N-(Pentan-3-Yl)Oxazole-5-Carboxamide] | 300 | 140
18 | CCCC(CCC)NC(=O)c1cc(-c2cccc(-c3ncc(C(=O)NC(CC)CC)o3)c2)[nH]n1 [Example 3.2, 2-(3-(3-(Heptan-4-Ylcarbamoyl)-1 H-Pyrazol-5-Yl)Phenyl)-N-(Pentan-3-yl)Oxazole-5-Carboxamide] | 30 | 90
19 | CCC(CC)NC(=O)c1cnc(-c2cccc(-c3cc(C(=O)N[C@H](C(=O)OCc4ccccc4)C(C)C)n[nH]3)c2)o1 [Example 3.3, (S)-Benzyl 3-Methyl-2-(5-(3-(5-(Pentan-3-Ylcarbamoyl)Oxazol-2-Yl)Phenyl)-1 H-Pyrazole-3-Carboxamido)Butanoate] | 180 | 133
20 | CCC(CC)NC(=O)c1cnc(-c2cccc(-c3cc(C(=O)NCC4CCC4)n[nH]3)c2)o1 [Example 3.5, 2-(3-(3-((Cyclobutylmethyl)Carbamoyl)-1H-Pyrazol-5-Yl)Phenyl)-N-(Pentan-3-Yl)Oxazole-5-Carboxamide] | 40 | 124
21 | CCC(CC)NC(=O)c1cnc(-c2cccc(-c3cc(C(=O)NC4(C5CC5)CC4)n[nH]3)c2)o1 [Example 3.6, 2-(3-(3-([1,1′-Bi(Cyclopropan)]-1-Ylcarbamoyl)-1H-Pyrazol-5-Yl)Phenyl)-N-(Pentan-3-Yl)Oxazole-5-Carboxamide] | 170 | 122
